In paper PMC12176101 (Drug Design, Development and Therapy, 2025) one finds IC50 data, which are given here for four molecules.

For this experiment, the target named is AChE (Homo sapiens, UniProt P22303). The experiment can be described thus: In vitro anti-AChE assay. Type of experiment: biochemical.

Usually IC50 stands for the midpoint of a concentration-inhibition curve. Read a high IC50 as a need for much substance.

Residues, ends and D or L forms follow the SMILES beside them.

Sequence of AChE (P22303 32-614): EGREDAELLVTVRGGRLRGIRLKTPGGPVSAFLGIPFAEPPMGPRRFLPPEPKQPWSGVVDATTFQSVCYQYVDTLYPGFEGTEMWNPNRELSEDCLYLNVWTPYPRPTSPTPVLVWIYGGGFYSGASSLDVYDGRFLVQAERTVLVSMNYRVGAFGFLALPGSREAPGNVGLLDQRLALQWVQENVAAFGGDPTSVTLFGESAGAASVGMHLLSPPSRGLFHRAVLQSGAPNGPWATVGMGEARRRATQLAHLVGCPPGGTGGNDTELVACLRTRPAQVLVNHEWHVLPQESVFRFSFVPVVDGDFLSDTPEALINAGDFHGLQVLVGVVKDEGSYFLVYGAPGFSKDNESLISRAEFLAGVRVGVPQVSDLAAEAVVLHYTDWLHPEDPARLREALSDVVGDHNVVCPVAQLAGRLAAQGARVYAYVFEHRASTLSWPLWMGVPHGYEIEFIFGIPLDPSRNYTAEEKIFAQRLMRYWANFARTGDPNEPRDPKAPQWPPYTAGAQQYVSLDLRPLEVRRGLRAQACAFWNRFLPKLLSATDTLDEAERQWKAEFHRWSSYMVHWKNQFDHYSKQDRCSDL

The molecule `CC(C)C[C@H](NC(=O)[C@H](Cc1c[nH]cn1)NC(=O)[C@@H](N)Cc1c[nH]c2ccccc12)C(=O)N[C@@H](CS)C(=O)N[C@H](C(=O)N[C@@H](CC(C)C)C(=O)N[C@@H](Cc1ccccc1)C(=O)O)C(C)C` [WHLCVLF] (H-WHLCVLF-OH) yielded a concentration for half-maximal inhibition (IC50) of 1500 nM. This counts as single-digit micromolar.
The figure for `CC[C@H](C)[C@H](NC(=O)[C@H](Cc1c[nH]c2ccccc12)NC(=O)[C@@H](N)C(C)C)C(=O)N[C@H](C(=O)NCC(=O)N[C@@H](Cc1ccccc1)C(=O)N[C@@H](CCC(=O)O)C(=O)N[C@@H](Cc1c[nH]cn1)C(=O)N[C@@H](CCSC)C(=O)O)[C@@H](C)CC` [VWIIGFEHM] (H-VWIIGFEHM-OH) is 3900 nM.
The figure for `CSCC[C@H](NC(=O)[C@@H](NC(=O)[C@H](Cc1c[nH]cn1)NC(=O)[C@@H](N)CC(C)C)[C@@H](C)O)C(=O)N[C@@H](CCC(=O)O)C(=O)N[C@@H](CC(C)C)C(=O)N[C@@H](CC(C)C)C(=O)O` [LHTMELL] (H-LHTMELL-OH) is 10600 nM; for `CC[C@H](C)[C@H](NC(=O)[C@@H](N)Cc1c[nH]c2ccccc12)C(=O)NCC(=O)N[C@@H](CS)C(=O)N[C@@H](Cc1c[nH]c2ccccc12)C(=O)N[C@@H](CC(=O)O)C(=O)O` [WIGCWD] (H-WIGCWD-OH) it is 1900 nM.
